In US9963703B2, “Compositions and methods for treating pancreatic cancer” (Autotelic LLC, priority 2016, dated 2018):
In the oligonucleotide strings, read from the 5' end, every base follows the letter of its sugar. An asterisk marks phosphorothioate; unmarked linkages are phosphodiester. Other units and linkages are bracketed, terminal groups are in braces. A string of capitals states the bases alone. d = 2'-deoxy (DNA)

Tested on: Patients With Advanced Tumors Known to Overproduce TGFβ2
Assay: Phase I/II dose escalation study P-001, safety (MTD, DLT, adverse events)
Format: in vivo, human
Method: Over-expression of transforming growth factor-beta 2 (TGF-β2) is associated with poor prognosis and plays a key role for malignant progression of various tumors by inducing proliferation, metastasis, angiogenesis and immunosuppression. P-001 trial of trabedersen-Safety and Tolerability of AP 12009 (trabedersen), Administered I.V. in Patients With Advanced Tumors Known to Overproduce TGFβ2, was evaluated to determine if treatment with trabedersen primed the tumors to subsequent chemotherapy.
In the instant study, the primary objective was to determine the Maximum Tolerated Dose (MTD) and the Dose Limited Toxicity (DLT) of two cycles of trabedersen administered intravenously (i.v.) for either 7 days every other week (i.e. 7 days on/7 days off) or for 4 days every other week (4 days on/10 days off). The secondary objective included assessment of antitumor activity of trabedersen administered intravenously for either 7 days every other week (i.e. 7 days on/7 days off) or for 4 days every other week (4 days on/10 days off).
The escalation scheme of this study aimed to determinate the MTD of two cycles of trabedersen (so called ‘core study period’) administered as a continuous i.v. infusion for 7 days every other week (7-days-on/7-days-off) or for 4 days every other week (4-days-on/10-days-off).
In general, it was planned to enroll a cohort of at least 3 evaluable patients per treatment group. For each cohort, the safety data obtained until end of the core study period (period for DLT-assessment, Cycle 1 and Cycle 2) were assessed in an interim analysis and evaluated by a Data and Safety Monitoring Board (DSMB). […] If 2 of these 3 patients experienced a DLT, the number of evaluable patients for the subsequent treatment group was increased to 6 for further evaluation of toxicity. Patients who were withdrawn from the study due to adverse events (AEs) attributed to DLT by the treating clinician, were not replaced but were used to determine the MTD and to evaluate the safety of the study drug. If patients were withdrawn due to other reasons, they were replaced until the treatment group was complete.
The MTD was determined according to the following procedure: If 2 out of 3 patients of 1 cohort experienced a DLT, 3 more patients were enrolled in the same treatment group. If at least 1 of these additional 3 patients also met the toxicity criteria for a DLT, the MTD for two cycles was determined; otherwise the dose escalation was continued upon agreement with the DSMB. MTD for two cycles was then defined as the dose at which no more than 2 out of 3, or 2 out of 6 patients of the same treatment group experienced a DLT. This procedure was followed until the MTD was reached.
The safety population comprised of 61 patients, representing all patients for whom at least once a trabedersen infusion was started. According to the protocol, the MTD was determined according to the following procedure: if […] out of 3 patients of one cohort experience dose-limiting toxicity, 3 more patients were enrolled in the same treatment group. If at least 1 more patient of this second cohort met the toxicity criteria, MTD for two cycles has been determined (otherwise escalation was continued). MTD for two cycles was then defined as the dose at which no more than 2 out of 3 or 2 out of 6 patients of the same treatment group experienced DLT. […] In the case that 2 patients of the first cohort experienced DLTs that clearly indicated attainment of the MTD, the second cohort could also be omitted. The described procedure was pursued until the MTD is reached.

[1] = 240 mg/m^2/day, 7-days-on and 7-days-off schedule
[2] = 4-days-on and 10-days-off schedule
[3] = 4-days-on, 10-days off schedule (N = 44)
[4] = 7-days-on and 7-days-off schedule
[5] = 7-days-on, 7-days off schedule (N = 17)

Substance: trabedersen: TGF-beta2 specific phosphorothioate antisense oligodeoxynucleotide with the sequence 5′-CGGCATGTCTATTTTGTA-3′ (SEQ ID No: 1) (antisense dC*dG*dG*dC*dA*dT*dG*dT*dC*dT*dA*dT*dT*dT*dT*dG*dT*dA)
- dose-limiting toxicity observed (140 mg/m^2/day, 4-days-on and 10-days-off schedule, one patient): Grade 3 upper gastrointestinal hemorrhage
- DLT: cases of Grade 3 maculopapular rash [1]: 1
- DLT: cases of Grade 3 thrombocytopenia [1]: 2
- number of patients who experienced a DLT [1]: 3
- patients with TEAEs that led to treatment discontinuation, % [2]: 15.9%
- patients with TEAEs that led to treatment discontinuation, number [2]: 7
- MTD (4-days-on and 10-days-off schedule, no MTD established, highest dose tested): > 330 mg/m^2/day
- Any SAE: % of patients with SAE [3]: 40.9%
- Any SAE: No. of SAEs [3]: 28
- Any SAE: No. of patients with SAE [3]: 18
- Ascites: No. of patients with SAE [3]: 0
- Cancer Pain: % of patients with SAE [3]: 4.5%
- Cancer Pain: No. of SAEs [3]: 2
- Cancer Pain: No. of patients with SAE [3]: 2
- Catheter related Infection: % of patients with SAE [3]: 2.3%
- Catheter related Infection: No. of SAEs [3]: 1
- Catheter related Infection: No. of patients with SAE [3]: 1
- Cholangitis: % of patients with SAE [3]: 6.8%
- Cholangitis: No. of SAEs [3]: 3
- Cholangitis: No. of patients with SAE [3]: 3
- Cholestasis: % of patients with SAE [3]: 2.3%
- Cholestasis: No. of SAEs [3]: 1
- Cholestasis: No. of patients with SAE [3]: 1
- GI hemorrhage: % of patients with SAE [3]: 2.3%
- GI hemorrhage: No. of SAEs [3]: 2
- GI hemorrhage: No. of patients with SAE [3]: 1
- Pneumonia: No. of patients with SAE [3]: 0
- Upper GI hemorrhage: % of patients with SAE [3]: 2.3%
- Upper GI hemorrhage: No. of SAEs [3]: 1
- Upper GI hemorrhage: No. of patients with SAE [3]: 1
- MTD [4]: 160 mg/m^2/day
- patients with TEAEs that led to treatment discontinuation, % [4]: 41.2%
- patients with TEAEs that led to treatment discontinuation, number [4]: 7
- Any SAE: % of patients with SAE [5]: 70.6%
- Any SAE: No. of SAEs [5]: 28
- Any SAE: No. of patients with SAE [5]: 12
- Ascites: % of patients with SAE [5]: 17.6%
- Ascites: No. of SAEs [5]: 3
- Ascites: No. of patients with SAE [5]: 3
- Cancer Pain: No. of patients with SAE [5]: 0
- Catheter related Infection: % of patients with SAE [5]: 11.8%
- Catheter related Infection: No. of SAEs [5]: 2
- Catheter related Infection: No. of patients with SAE [5]: 2
- Cholangitis: % of patients with SAE [5]: 5.9%
- Cholangitis: No. of SAEs [5]: 1
- Cholangitis: No. of patients with SAE [5]: 1
- Cholestasis: % of patients with SAE [5]: 5.9%
- Cholestasis: No. of SAEs [5]: 1
- Cholestasis: No. of patients with SAE [5]: 1
- GI hemorrhage: % of patients with SAE [5]: 11.8%
- GI hemorrhage: No. of SAEs [5]: 3
- GI hemorrhage: No. of patients with SAE [5]: 2
- Pneumonia: % of patients with SAE [5]: 17.6%
- Pneumonia: No. of SAEs [5]: 3
- Pneumonia: No. of patients with SAE [5]: 3
- Upper GI hemorrhage: % of patients with SAE [5]: 5.9%
- Upper GI hemorrhage: No. of SAEs [5]: 1
- Upper GI hemorrhage: No. of patients with SAE [5]: 1
- MTD (4 days on and days off regimen (N=27), not reached at highest dose): > 330 mg/m^2/d
- MTD (7 days on and 7 days off regimen (N=11)): 160 mg/m^2/d
- Any SAE: % of patients with SAE (Total (N = 61)): 49.2%
- Any SAE: No. of SAEs (Total (N = 61)): 56
- Any SAE: No. of patients with SAE (Total (N = 61)): 30
- Ascites: % of patients with SAE (Total (N = 61)): 4.9%
- Ascites: No. of SAEs (Total (N = 61)): 3
- Ascites: No. of patients with SAE (Total (N = 61)): 3
- Cancer Pain: % of patients with SAE (Total (N = 61)): 3.3%
- Cancer Pain: No. of SAEs (Total (N = 61)): 2
- Cancer Pain: No. of patients with SAE (Total (N = 61)): 2
- Catheter related Infection: % of patients with SAE (Total (N = 61)): 4.9%
- Catheter related Infection: No. of SAEs (Total (N = 61)): 3
- Catheter related Infection: No. of patients with SAE (Total (N = 61)): 3
- Cholangitis: % of patients with SAE (Total (N = 61)): 6.6%
- Cholangitis: No. of SAEs (Total (N = 61)): 4
- Cholangitis: No. of patients with SAE (Total (N = 61)): 4
- Cholestasis: % of patients with SAE (Total (N = 61)): 3.3%
- Cholestasis: No. of SAEs (Total (N = 61)): 2
- Cholestasis: No. of patients with SAE (Total (N = 61)): 2
- GI hemorrhage: % of patients with SAE (Total (N = 61)): 4.9%
- GI hemorrhage: No. of SAEs (Total (N = 61)): 3
- GI hemorrhage: No. of patients with SAE (Total (N = 61)): 3
- Pneumonia: % of patients with SAE (Total (N = 61)): 4.9%
- Pneumonia: No. of SAEs (Total (N = 61)): 3
- Pneumonia: No. of patients with SAE (Total (N = 61)): 3
- Upper GI hemorrhage: % of patients with SAE (Total (N = 61)): 3.3%
- Upper GI hemorrhage: No. of SAEs (Total (N = 61)): 2
- Upper GI hemorrhage: No. of patients with SAE (Total (N = 61)): 2
- number of patients for whom a DLT was proclaimed (all cohorts, 2 pancreatic carcinoma, 2 colorectal cancer): 4
- patients with TEAEs that led to treatment discontinuation, % (all patients): 23.0%
- patients with TEAEs that led to treatment discontinuation, number (all patients): 14
- total number of TEAEs that led to treatment discontinuation (all patients): 23
- patients with TEAEs that led to treatment discontinuation, % (colorectal cancer): 40.0%
- patients with TEAEs that led to treatment discontinuation, number (colorectal cancer): 2
- daily dose of MTD (initial 7-days-on and 7-days-off schedule): approx. 4 mg/kg/day
- patients with TEAEs that led to treatment discontinuation, % (melanoma): 15.8%
- patients with TEAEs that led to treatment discontinuation, number (melanoma): 3
- patients with TEAEs that led to treatment discontinuation, % (pancreatic cancer): 24.3%
- patients with TEAEs that led to treatment discontinuation, number (pancreatic cancer): 9
